Experimental data reported in article PMC9101642 (Molecules, 2022).
Read-outs that look alike come from different tables or passages of the source. Marks after values point to notes of the source that are not given here.

How the values were obtained:
ERα [1] = biological target: T1, ERα (Homo sapiens, UniProt P03372); assay: Fluorescence polarization competition assay: antagonistic potency and relative binding affinity; settings: for logRBA ERα: log of % relative binding affinity, estradiol = 100%
T1 sequence (P03372 1-595): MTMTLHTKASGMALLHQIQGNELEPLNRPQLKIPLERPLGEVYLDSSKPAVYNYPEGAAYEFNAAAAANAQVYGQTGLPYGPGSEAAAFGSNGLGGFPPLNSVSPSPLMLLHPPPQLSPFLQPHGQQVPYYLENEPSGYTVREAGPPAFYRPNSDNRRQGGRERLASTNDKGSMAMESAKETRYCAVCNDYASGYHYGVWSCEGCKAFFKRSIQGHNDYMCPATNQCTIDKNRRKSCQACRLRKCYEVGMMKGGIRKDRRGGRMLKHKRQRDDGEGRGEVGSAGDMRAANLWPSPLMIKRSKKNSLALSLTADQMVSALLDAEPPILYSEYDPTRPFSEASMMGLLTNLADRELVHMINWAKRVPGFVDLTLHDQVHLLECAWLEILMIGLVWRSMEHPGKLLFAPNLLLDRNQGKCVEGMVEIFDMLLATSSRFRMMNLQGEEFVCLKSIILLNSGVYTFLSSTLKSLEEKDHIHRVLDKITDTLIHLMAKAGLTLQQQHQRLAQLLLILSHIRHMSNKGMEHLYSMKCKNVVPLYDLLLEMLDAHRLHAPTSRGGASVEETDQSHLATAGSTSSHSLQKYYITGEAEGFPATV

ERβ = ERβ (Homo sapiens, UniProt Q92731); assay: as above; settings: for logRBA ERβ: log of % relative binding affinity, estradiol = 100%
MCF-7 cell lines = assay: MTT antiproliferative assay; type: cell-based, human; settings: for IC50: Homo sapiens, MCF7; for SI: selectivity index [IC50(MDA-MB-231)]/[IC50(MCF-7)]
MDA-MB-231 cell lines = assay: MTT antiproliferative assay; type: cell-based, human; settings: Homo sapiens, MDA-MB-231
[2] = test system: Ishikawa endometrial adenocarcinoma cells; assay: Antiproliferative assay; type: cell-based; settings: Homo sapiens, growth inhibition
Text: As SERMs profile is often associated with the stimulation of endometrial cell proliferation and an increase in the incidence of endometrial cancer (EC), the herein compounds were therefore evaluated against Ishikawa endometrial adenocarcinoma cells (Table 8, Supplementary Material Figures […]). […] However, future experimental elaboration, currently beyond the authors' experimental facilities, is required to confirm compounds' promising profiles in terms of no EC induction.

ERα [3] = biological target: T1, ERα; assay: ERα down-regulation immunofluorescence assay in MCF-7; type: cell-based
[4] = test system: progesterone receptor (PR); assay: ERα functional antagonism cell assay (PR as biomarker) in MCF-7; type: cell-based; settings: Homo sapiens, MCF7; progesterone receptor as biomarker for ERα antagonism in MCF-7
MCF-7 cells = assay: Cell cycle distribution by flow cytometry; type: cell-based, human; settings: 24 h
[5] = MTT antiproliferative assay (neutral control); settings: human
[6] = test system: MNU-induced breast cancer; assay: In vivo anticancer screening, MNU-induced mammary tumorigenesis; parameters: species or system female Wistar rats; settings: dose 50 mg/kg (compounds per os after MNU; MNU alone i.p.)
[7] = Serum biochemical markers after treatment of MNU-induced rats; type: in vivo, Wistar rats; parameters: TBC: unit not given here; settings: dose 50 mg/kg
Description: (§1) Rats were housed at 3 per cage and
(§2) The breast cancer was induced after the MNU (Sigma Aldrich CAS No. 684-93-5) administration. An aqueous solution at a concentration of 10 mg/ml was made by wetting the NMU powder with 3% acetic acid and then dissolving it in 0.9% NaCl solution; a fresh solution was prepared for each injection. Rats were given intraperitoneal (i.p.) 50 mg/kg of MNU on the 50th day of age. Animals were divided into different groups with six animals in each group. Group I (intact control) received 0.9% NaCl solution.
(§3) Groups II-IV and V-VII were introduced with MNU. Two weeks after MNU treatment, animals were treated orally with synthesized compounds and control substances (5 and 50 mg/kg, for groups II-IV and V-VII, respectively) by gavage once per day for six weeks. Animals in the intact control group and untreated MNU group were given vehicle (Tween 80) according to the experimental protocol. […]
Upon finishing the treatment with synthesized compounds, animals were sacrificed, and plasma, serum, and liver samples were collected.
Measurement of Serum Biochemical Markers
The activities of AST and ALT on 340 nm, and ALP on 405 nm, were determined by UV-Vis kinetic methods according to recommendations of the Expert Panel of the IFCC (International Federation of Clinical Chemistry). The colorimetric methods were used for the determination of total bilirubin (Jendrassik-Grof 550 nm method). All kinetic and colorimetric measurements were recorded using a Perkin-Elmer Lambda 25 UV/Vis spectrophotometer. […]

[8] = Liver oxidative stress markers after treatment of MNU-induced rats; type: in vivo, Wistar rats; settings: liver, dose 50 mg/kg
Description: as §1, §2, §3
Upon finishing the treatment with synthesized compounds, animals were sacrificed, and plasma, serum, and liver samples were collected. […]
Determination of Antioxidant Markers in Liver Homogenate
Rat liver samples were homogenized in phosphate buffer (5 mM, pH = 7.4) to give a 10% (w/v) liver homogenate and then centrifuged at 4000 rpm for 15 min at 4°C. The supernatant of liver homogenate was used for the estimation of reduced glutathione (GSH) and catalase (CAT) levels by the colorimetric method. The contents of malondialdehyde (MDA) in the supernatant of the liver homogenates were determined using 1,1,3,3-tetraethoxypropane as standard. Total protein concentrations were determined according to the method of Lowry using bovine serum albumin as […]

[9] = test system: MNU-induced breast cancer tissue; assay: Histopathology of breast sections; type: in vivo, Wistar rats; settings: 50 mg/kg of bwt
Text: The impact of selected leads on BC tissue was registered after their administration to experimental animals with MNU-induced BC (Figure 9 and Supplementary Material Figures S211–S218). […] In contrast to this, the administered leads were harmless in both concentrations, neutralizing the MNU-induced changes, judging by the lobuloalveolar units and cuboidal epithelial cells found (Figure 9C,D, and Supplementary Material Figures S214–S218). […]
Histopathological Studies
histopathological changes. […]

[10] = growth inhibition, 48 h, read-out: MCF-7 (IC50 nM)
[11] = growth inhibition, 48 h, read-out: MDA-MB-231 (IC50 nM)
[12] = 1 nM as lower concentration (3DPQ-5, 3DPQ-6, 3DPQ-8)
[13] = MFD 1000 mg/kg (MNU: MTD 100 mg/kg bwt), 5 days

Sequence of ERβ (Q92731 whole entry): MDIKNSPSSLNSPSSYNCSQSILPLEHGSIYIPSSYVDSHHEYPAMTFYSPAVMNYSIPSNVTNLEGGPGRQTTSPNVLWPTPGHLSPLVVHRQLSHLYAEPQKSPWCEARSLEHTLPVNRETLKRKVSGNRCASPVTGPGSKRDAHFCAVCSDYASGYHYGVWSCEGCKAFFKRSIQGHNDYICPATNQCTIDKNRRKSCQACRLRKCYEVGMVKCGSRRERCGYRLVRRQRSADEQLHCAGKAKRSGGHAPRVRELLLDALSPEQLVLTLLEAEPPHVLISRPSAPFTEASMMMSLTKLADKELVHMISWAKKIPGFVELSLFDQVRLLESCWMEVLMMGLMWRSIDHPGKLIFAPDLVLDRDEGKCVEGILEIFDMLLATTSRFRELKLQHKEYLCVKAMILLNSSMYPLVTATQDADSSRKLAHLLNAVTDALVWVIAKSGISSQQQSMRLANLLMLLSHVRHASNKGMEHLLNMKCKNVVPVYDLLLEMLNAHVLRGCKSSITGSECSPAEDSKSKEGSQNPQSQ

CC(=O)c1cc(C(=O)O[C@@H]2/C=C/C(=O)O[C@@H](O)CCC/C=C/[C@@H]3C[C@H](O)C[C@H]32)ccc1OCCN1CCCC1 [Compound 3DPQ-11, (1R,2E,6R,10E,11aS,13S,14aR)-6,13-dihydroxy-4-oxo-4,6,7,8,9,11a,12,13,14,14a-decahydro-1H-cyclopenta[f][1]oxacyclotridecin-1-yl 3-acetyl-4-(2-(pyrrolidin-1-yl)ethoxy)benzoate]
IC50 (ERα [1]): 0.7 ± 0.33 nM | Ki (ERα [1]): 0.16 nM | logRBA ERα (ERα [1]): 2.10 ^‡ | ERα potency, fold higher than Ral (ERα [1]; ratio of IC50 values): 1.06 fold | IC50 (ERβ): 76.52 ± 0.48 nM | Ki (ERβ): 43 nM | logRBA ERβ (ERβ): 0.07 ^†,‡,§ | IC50 (MCF-7 cell lines; [10]): 0.81 ± 0.22 nM | MCF-7 antiproliferative potency, fold higher than Ral (MCF-7 cell lines; ratio of IC50 values): 1.10 fold | SI (MCF-7 cell lines): 82.86 ^‡,§ | IC50 (MDA-MB-231 cell lines; [11]): 67.12 ± 0.54 nM | IC50 [2]: 1.37 ± 0.47 nM | IC50 (ERα [3]): > 100 nM | IC50 [4]: > 100 nM | Cell Cycle (%) G0/G1 (MCF-7 cells; 0.1 nM): 72.53 ± 0.47 *^,†,‡,§ % | Cell Cycle (%) G2/M (MCF-7 cells; 0.1 nM): 14.16 ± 2.13 *^,†,‡,§ % | Cell Cycle (%) S (MCF-7 cells; 0.1 nM): 13.31 ± 1.66 *^,†,‡,§ % | Cell Cycle (%) G0/G1 (MCF-7 cells; 1 nM): 74.99 ± 2.54 *^,†,‡,§ % | Cell Cycle (%) G2/M (MCF-7 cells; 1 nM): 11.00 ± 3.43 *^,†,‡,§ % | Cell Cycle (%) S (MCF-7 cells; 1 nM): 14.02 ± 1.43 *^,†,‡,§ % | IC50 at 48 h [5]: > 100 nM

CC(=O)c1cc(C(=O)O[C@@H]2/C=C/C(=O)O[C@@H](O)CCC/C=C/[C@@H]3C[C@H](O)C[C@H]32)ccc1OCCN1Cc2cccnc2C1 [Compound 3DPQ-6, (1R,2E,6R,10E,11aS,13S,14aR)-6,13-dihydroxy-4-oxo-4,6,7,8,9,11a,12,13,14,14a-decahydro-1H-cyclopenta[f][1]oxacyclotridecin-1-yl 4-(2-(5H-pyrrolo[3,4-b]pyridin-6(7H)-yl)ethoxy)-3-acetylbenzoate]
IC50 (ERα [1]): 0.84 ± 0.11 nM | Ki (ERα [1]): 0.19 nM | logRBA ERα (ERα [1]): 2.03 ^‡ | ERα potency, fold more potent than 4-OHT (ERα [1]; ratio of IC50 values): 1.33 fold | IC50 (ERβ): 86.56 ± 0.33 nM | Ki (ERβ): 48.6 nM | logRBA ERβ (ERβ): 0.01 ^†,‡,§ | IC50 (MCF-7 cell lines; [10]): 1.14 ± 0.49 nM | SI (MCF-7 cell lines): 45.89 ^‡,§ | IC50 (MDA-MB-231 cell lines; [11]): 52.31 ± 0.46 nM | IC50 [2]: 1.46 ± 0.43 nM | IC50 (ERα [3]): > 100 nM | IC50 [4]: > 100 nM | Cell Cycle (%) G0/G1 (MCF-7 cells; [12]): 70.52 ± 1.53 *^,†,‡,§ % | Cell Cycle (%) G2/M (MCF-7 cells; [12]): 16.21 ± 3.25 *^,†,‡,§ % | Cell Cycle (%) S (MCF-7 cells; [12]): 13.27 ± 2.64 *^,†,‡,§ % | Cell Cycle (%) G0/G1 (MCF-7 cells; 10 nM (3DPQ-5, 3DPQ-6, 3DPQ-8)): 71.98 ± 2.44 *^,†,‡,§ % | Cell Cycle (%) G2/M (MCF-7 cells; 10 nM (3DPQ-5, 3DPQ-6, 3DPQ-8)): 14.05 ± 2.43 *^,†,‡,§ % | Cell Cycle (%) S (MCF-7 cells; 10 nM (3DPQ-5, 3DPQ-6, 3DPQ-8)): 13.98 ± 1.33 *^,†,‡,§ % | IC50 at 48 h [5]: > 100 nM

CN(N=O)C(N)=O [MNU, Methyl nitrosourea, reference compound]
Tumor Burden (week) [6]: 4.55 ± 0.15 *^,‡,§,‖,┴ week | Tumor Latency (week) [6]: 5 *^,†,‡,§,‖,┴ week | Tumor Volume (mm^3) [6]: 4.48 ± 0.54 mm^3 | ALP (A/L) ([7]; serum): 232.54±0.32 A/L | ALT (A/L) ([7]; serum): 157.31 A/L | AST (U/L) ([7]; serum): 135.43 U/L | γ-GT (U/L) ([7]; serum): 19.43±0.42 U/L | TBC ([7]; total bilirubin content): 32.34 | CAT ([8]; catalase activity): 3.08±0.68 | TBARS [8]: 3.31 ± 0.72 nmol/mg | SOD (U/mg) ([8]; superoxide dismutase activity): 3.32±0.14 U/mg | TP ([8]; total protein content): 51.32 ± 0.43 g/L | breast section histopathology [9]: mammary gland carcinoma alongside with massive proliferation of neoplastic epithelial cells (EC) | colon section histopathology [13]: induced colon | heart section histopathology [13]: interstitial hydrops | kidney section histopathology [13]: large size neoplastic lymphocytes infiltrated into the interstitial | liver section histopathology [13]: numerous numbers of medium to large size neoplastic lymphocytes | lung section histopathology [13]: alveolar bronchiolar | spleen section histopathology [13]: faded red pulp | WL after MFD (day 1, mg) (average body weight at day 1, dosing at MFD): 305.44 ± 0.62 mg | MFD (5 days) (maximum feasible (or tolerated) dose, 5 days per os, 5-1000 mg/kg bwt): 100 mg/kg

CC(=O)c1cc(C(=O)O[C@@H]2/C=C/C(=O)O[C@@H](O)CCC/C=C/[C@@H]3C[C@H](O)C[C@H]32)ccc1OCCN1CCCCC1 [Compound 3DPQ-10, (1R,2E,6R,10E,11aS,13S,14aR)-6,13-dihydroxy-4-oxo-4,6,7,8,9,11a,12,13,14,14a-decahydro-1H-cyclopenta[f][1]oxacyclotridecin-1-yl 3-acetyl-4-(2-(piperidin-1-yl)ethoxy)benzoate]
IC50 (ERα [1]): 0.77 ± 0.14 nM | Ki (ERα [1]): 0.17 nM | logRBA ERα (ERα [1]): 2.06 ^‡ | ERα potency, fold more potent than 4-OHT (ERα [1]; ratio of IC50 values): 1.45 fold | IC50 (ERβ): 79.54 ± 0.76 nM | Ki (ERβ): 44.7 nM | logRBA ERβ (ERβ): 0.05 ^†,‡,§ | IC50 (MCF-7 cell lines; [10]): 0.97 ± 0.34 nM | SI (MCF-7 cell lines): 42.27 ^‡,§ | IC50 (MDA-MB-231 cell lines; [11]): 41.97 ± 0.32 nM | IC50 [2]: 1.55 ± 0.42 nM | IC50 (ERα [3]): > 100 nM | IC50 [4]: > 100 nM | Cell Cycle (%) G0/G1 (MCF-7 cells; 0.1 nM): 71.96 ± 1.43 *^,†,‡,§ % | Cell Cycle (%) G2/M (MCF-7 cells; 0.1 nM): 16.08 ± 1.56 *^,†,‡,§ % | Cell Cycle (%) S (MCF-7 cells; 0.1 nM): 11.96 ± 2.41 *^,†,‡,§ % | Cell Cycle (%) G0/G1 (MCF-7 cells; 1 nM): 74.42 ± 2.12 *^,†,‡,§ % | Cell Cycle (%) G2/M (MCF-7 cells; 1 nM): 12.92 ± 4.32 *^,†,‡,§ % | Cell Cycle (%) S (MCF-7 cells; 1 nM): 12.67 ± 2.46 *^,†,‡,§ % | IC50 at 48 h [5]: > 100 nM

C[C@H]1CCC/C=C/[C@@H]2C[C@H](O)C[C@H]2[C@H](O)/C=C/C(=O)O1 [BFA, Brefeldin A, reference compound]
IC50 (MCF-7 cell lines; virtually screened NCI hits, Table S17, read-out: MCF-7 (IC50)): 9010 nM | IC50 (MDA-MB-231 cell lines; virtually screened NCI hits, Table S17, read-out: MDA-MB-231 (IC50)): > 100000 nM | IC50 at 48 h [5]: > 100000 nM
